Experiments:
Assay type in all cases: cell-based
Panc-1 and Paca2 cells = test: MTT relative cytotoxicity toward pancreatic cancer lines (statements on both lines together); conditions: 72 hours; for cytotoxicity toward pancreatic cancer lines: 12.5, 25 and 50 μM
Experimental: (§1) FIG. 7: Relative cytotoxicity of the AOH compounds docking with caPCNA toward cultured Panc-1 (A) and Paca2 (B) cells. Relative cytotoxicity was determined by a colorimetric assay (MTT) measuring cell viability following a 72 hour incubation with the compounds indicated. Cells were exposed to DMSO/saline (series 1) and 12.5 (series 2) 25 (series 3) and 50 (series 4) μM of the indicated drug dissolved in DMSO for 72 hours prior to performing the MTT assay.

Panc-1 cells = system: Panc-1 cells
Experimental: as §1
(§2) FIG. 8: 50 μM AOH-18, AOH-20, and AOH-39 were individually incubated with exponentially growing Panc-1 or Paca-2 cells for 72 hours, after which cell viability was determined colorimetrically using MTT.

Paca-2 cells = test: MTT cell viability assay, Paca-2 cells, 72 hours
Experimental: as §1, §2

MCF-7 cells = conditions: for selectivity of toxicity, breast cancer versus non-malignant breast cells: at concentrations lower than 100 μM (10 μM), MCF7 vs MCF-10A
Experimental: The effect that a set of in silico selected compounds had on the viability of exponentially growing cultured malignant (MCF-7) and non-malignant (MCF-10A) breast cells was determined. Exponentially growing malignant (MCF-7) and non-malignant (MCF-10A) breast cells were incubated for 72 hours with 100 μM of the indicated compounds in growth media, before cell viability was determined colorimetrically using the MTT assay. […] Relative viability was determined by comparison to the viability of the cell cultures incubated in the presence of PBS/DMSO (vehicle) control instead of compound. […] Also were identified compounds that killed: both cell types with nearly equal preference; compounds that had little or no cytotoxic effect on either cell type, and compounds that preferentially killed the non-malignant breast cells.
The short- and long-term cytotoxic effects of each of the AOH compounds was determined essentially as described below for the caPeptide and related peptides, except that the initial cell based screening was determined by incubating cells for 72 hours with 100 μM of each compound. Compounds were classified into specific categories: 1) compounds that preferentially kill breast cancer but not non-malignant breast cells; 2) compounds that appear to kill both malignant and non-malignant breast cells without preference; 3) compounds that appear to have little or no toxicity toward either type of breast cell; and 4) compounds that appear to preferentially kill non-malignant breast cells. For those compounds falling into the first category, the short-term MTT viability assay was repeated using 10 μM of the selected AOH compound.
The MTT ((3-(4,5-Dimethylthiazol-2-yl)-2,5-diphenyltetrazolium bromide) assay was performed to determine the viability of cells exposed for various lengths of time to various peptide constructs containing or related to caPeptide. This assay determines the short-term affect each of the peptides has on cell viability. caPeptide's sequence is LGIPEQEY. The MTT assay was used to monitor the cytotoxic effect various caPeptides had on the viability of human MCF-7, MDA-MB436, HCC1937^(BRCA−) and HCC1937^(BRCA+) breast cancer cells. HCC1937^(BRCA−) cells harbor a hereditary mutation in the BRCA1 gene, that results in a non-functional gene product. These cells, are the parental wild-type to the HCC1937^+ cells, which express a fully functional BRCA1 human transgene. The assay was performed by seeding equal numbers of cells (5×10^3) into each of the wells of 96-well tissue culture plates for an overnight incubation to allow the cells to attach to the plates. In the morning, the cells in each of 3 individual wells were exposed to each of the various peptide constructs at the various concentrations indicated in the figures, for periods of 24, 48 and 72 hours. The MTT assay was then performed on the cells in each of the wells to determine the relative degree to which specific peptides were cytotoxic to each of these breast cancer cell lines. Percent viability at the end of the assay we determined colorimetrically by measuring the absorbance at 405 nm of the assay products formed in each well, averaging them, and then comparing the average absorbance of these assay products formed at each individual time period for each specific concentration of a specific peptide examined to the average absorbance of the 3 wells used to determine the viability of untreated cells exposed to PBS in place of peptide. These wells containing the PBS treated cells were assigned a relative viability of 100%, based upon the average absorbance of the reaction product formed in these wells, and the viability of the cells exposed to the various peptides under specific assay conditions was determined as a percentage of the absorbance produced by these PBS treated cells.

| SMILES | cytotoxicity toward pancreatic cancer lines (Panc-1 and Paca2 cells) | CC50 (MCF-7 cells) | also measured |
| --- | --- | --- | --- |
| Cc1ccc(-n2c(C(C)N3CCNC(C)C3)nc3ccccc3c2=O)cc1 (stereo not shown) [AOH-16] | concentration dependent cytotoxicity |  |  |
| Cc1nc(C)c(Cc2ccccc2F)c(N2CCN(CC(O)C(C)C)CC2)n1 (stereo not shown) [AOH-52] | concentration dependent cytotoxicity |  |  |
| CCNC(C)c1nc2ccccc2c(=O)n1Cc1ccccc1 (stereo not shown) [AOH-1] | concentration dependent cytotoxicity |  |  |
| CC(C)(C)c1ccc(CNC2CCN(Cc3ccccc3)CC2)cc1 [AOH-20] |  | 3 to 40 µM | LC50 (Panc-1 cells): not achieved over the concentration range tested; LC50 (Paca-2 cells): not achieved over the concentration range tested; selectivity of toxicity, breast cancer versus non-malignant breast cells (MCF-7 cells): selectively toxic |
| CCn1c2ccccc2c2cc(CNCc3ccccc3)ccc21 [AOH-18] |  |  | LC50 (Panc-1 cells): not achieved over the concentration range tested; LC50 (Paca-2 cells): not achieved over the concentration range tested; loss in viability of both pancreatic cell lines (Panc-1 and Paca2 cells; at the MCF-7 LC50 concentration (~3 μM)): little or no loss in viability; relative sensitivity of MCF-7 cells among compounds (MCF-7 cells; 72 hours, MTT, rank by LC50): most sensitive; selectivity of toxicity, breast cancer versus non-malignant breast cells (MCF-7 cells): selectively toxic |
| CCN(C(=O)Nc1cccc(C(F)(F)F)c1)C(C)c1nc2ccccc2c(=O)n1-c1ccc(F)cc1 (stereo not shown) [AOH-59] | concentration dependent cytotoxicity | 3 to 40 µM |  |
| CCCCNC(=O)c1cc2oc(C)cc2n1Cc1cc(C)ccc1C [AOH-36] |  | 3 to 40 µM |  |
| CCCCNC(=O)c1cc2occc2n1Cc1cc(C)ccc1C [AOH-34] | concentration dependent cytotoxicity |  |  |

— patent US20130345231A1, “ANTICANCER THERAPEUTIC AGENTS” (INDIANA UNIVERSITY RESEARCH AND TECHNOLOGY CORPORATION, priority 2011, published 2013)
